Columns and labels:
human PDE4B1 [1] = target: T1, human PDE4B1 (Homo sapiens, UniProt Q07343); test: TR-FRET assay using the LANCE Ultra cAMP kit to determine the activity of hPDE4B1; format: biochemical; settings: test substrate concentration of 10 μM, read-out: Inhibition of PDE4B, Inhibition in %
T1 construct: host or cells: Sf9 cells
Text: TR-FRET Assay Using the LANCE® Ultra cAMP Kit to Determine the Activity of hPDE4B1
The effects of the compounds on the activity of the human PDE4B1 was quantified by measuring the production of 5′AMP from cAMP using a human recombinant enzyme expressed in Sf9 cells and the LANCE® Ultra cAMP kit, a TR-FRET detection method from PerkinElmer. The human PDE4B1 enzyme was purchased from SignalChem Lifesciences (Catalog #P92-31BG, Lot #H296-2).
The test compound, reference compound or water (control) was mixed with the enzyme (0.96 U) in a reaction buffer containing 50 mM Tris-HCl, 50 mM MgCl2 and 5 mM DTT (pH 8.5). Thereafter, the reaction was initiated by addition of 500 nM cAMP (substrate) and the mixture was incubated for 30 minutes at room temperature. For control basal measurements, the enzyme was omitted from the reaction mixture. After 30 minutes, the reaction was stopped and diluted by a factor of 100 with the reaction buffer supplemented with 500 μM IBMX. The fluorescence donor (europium chelate-labeled cAMP) and the fluorescence acceptor (anti-cAMP antibody labeled with the ULight™ dye) were then added together with 500 μM IBMX to a 10 μl aliquot. After 60 minutes, the fluorescence transfer corresponding to the amount of residual cAMP was measured at λex=337 nm, λem=620 nm and λem=665 nm using a microplate reader (PHERAstar, BMG). The enzyme activity was determined by dividing the signal measured at 665 nm by that measured at 620 nm (ratio) multiplied by 10000. The results were expressed as percent inhibition of the control enzyme activity. IC50 values (IC50=concentration causing a half-maximal inhibition of control specific activity) were derived from dose response measurements with ten different concentrations (n=3; N=1-3).

human PDE4B1 [2] = target: T1, human PDE4B1; test: cAMP HTRF assay to determine the activity of hPDE4B1; format: biochemical; settings: test substrate concentration of 1 μM, read-out: Inhibition of PDE4B, Inhibition in %
Method: cAMP HTRF® Assay to Determine the Activity of hPDE4B1
The inhibiting effect of the compounds on the enzyme activity of human PDE4B1 was measured by the quantification of 5′-adenosine monophosphate (5′-AMP), which is formed from 3′,5′-cyclic adenosine monophosphate (cAMP). Human recombinant enzyme, expressed in Sf9 cells, and the HTRF (homogeneous time-resolved fluorescence) detection method were used in the assay.
The test compound or water (control) was mixed with the human recombinant PDE4B1 enzyme (4.8 U) in a buffer consisting of 44.4 mM tris-HCl, 5.28 mM MgCl2, 2.64 mM DTT and 0.044% Tween 20 (pH 7.8). After adding the cAMP enzyme substrate (final concentration 40 nM), the mixture was incubated for 30 minutes at room temperature. Then a fluorescence acceptor (Dye2 marked with cAMP), a fluorescence donor (anti-cAMP antibody marked with a europium cryptate) and the non-specific phosphodiesterase inhibitor IBMX (3-isobutyl-1-methylxanthine; final concentration 1 mM) were added. After 60 minutes the fluorescence transfer, which correlates with the amount of remaining cAMP, was measured with a microplate reader (Rubystar, BMG) at λex=337 nm, λem=620 nm and λem=665 nm. The enzyme activity was calculated from the quotient formed from the measured signal at 665 nm and that at 620 nm. The result was expressed as the percentage inhibition of enzyme activity of the control (without PDE4 inhibitor). The enzyme was omitted for measurement of the basal control. IC50 values (IC50=concentration causing a half-maximal inhibition of control specific activity) were derived from dose response measurements with eight different concentrations (n=2; N=1-3).
Literature: N. Saldou et al., Comparison of recombinant human PDE4 isoforms: interaction with substrate and inhibitors, Cell. Signal. Vol. 10, No. 6, 427-440, 1998

T1 sequence (Q07343 whole entry): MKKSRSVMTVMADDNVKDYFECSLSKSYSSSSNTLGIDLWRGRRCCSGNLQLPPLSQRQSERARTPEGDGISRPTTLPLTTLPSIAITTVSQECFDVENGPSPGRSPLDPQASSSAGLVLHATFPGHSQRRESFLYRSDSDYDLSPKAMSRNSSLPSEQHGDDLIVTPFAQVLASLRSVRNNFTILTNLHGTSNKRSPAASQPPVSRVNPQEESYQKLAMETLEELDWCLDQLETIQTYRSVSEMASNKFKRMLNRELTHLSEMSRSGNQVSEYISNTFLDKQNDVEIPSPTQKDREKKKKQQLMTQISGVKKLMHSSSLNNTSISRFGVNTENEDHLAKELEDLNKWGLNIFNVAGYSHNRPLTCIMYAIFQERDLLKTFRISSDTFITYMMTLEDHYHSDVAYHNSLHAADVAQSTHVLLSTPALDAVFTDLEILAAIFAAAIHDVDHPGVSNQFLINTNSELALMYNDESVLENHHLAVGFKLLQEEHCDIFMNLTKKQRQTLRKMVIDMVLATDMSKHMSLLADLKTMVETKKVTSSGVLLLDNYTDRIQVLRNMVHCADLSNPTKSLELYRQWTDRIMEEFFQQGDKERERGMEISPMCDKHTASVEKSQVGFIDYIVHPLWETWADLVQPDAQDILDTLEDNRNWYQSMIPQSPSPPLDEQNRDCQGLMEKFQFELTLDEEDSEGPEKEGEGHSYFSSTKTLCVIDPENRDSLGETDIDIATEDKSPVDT

SMILES	inhibition at 10 µM (human PDE4B1 [1])	melting point	inhibition at 1 µM (human PDE4B1 [2])
CC(O)c1ccc(F)c(-c2cnc(-n3nc(C4CC4)c4ccc(C(=O)N5CCOCC5)cc43)nc2)c1 (stereo not shown) [Compound No. 52, (3-Cyclopropyl-1-(5-(2-fluoro-5-(1-hydroxyethyl)phenyl)pyrimidin-2-yl)-1H-indazol-6-yl)(morpholino)methanone]	117%	256 to 260 °C	
C[S+]([O-])c1ccc(F)c(-c2cnc(-n3nc(C4CC4)c4ccc(C(=O)N5CCOCC5)cc43)nc2)c1 (stereo not shown) [Compound No. 56, (3-Cyclopropyl-1-(5-(2-fluoro-5-(methylsulfinyl)phenyl)pyrimidin-2-yl)-1H-indazol-6-yl)(morpholino)methanone]	106%	243 to 247 °C	
CCOc1ccc(F)c(-c2cnc(-n3nc(C4CC4)c4ccc(C(=O)N(C)CC(N)=O)cc43)nc2)c1 [Compound No. 50, N-(2-Amino-2-oxoethyl)-3-cyclopropyl-1-(5-(5-ethoxy-2-fluorophenyl)pyrimidin-2-yl)-N-methyl-1H-indazole-6-carboxamide]	95%	228 to 231 °C	
CC(O)c1ccc(F)c(-c2cnc(-n3nc(C4CC4)c4ccc(C(=O)N(C)CC(N)=O)cc43)nc2)c1 (stereo not shown) [Compound No. 53, N-(2-Amino-2-oxoethyl)-3-cyclopropyl-1-(5-(2-fluoro-5-(1-hydroxyethyl)phenyl)pyrimidin-2-yl)-N-methyl-1H-indazole-6-carboxamide]	101%	248 to 252 °C	
CCOc1ccc(F)c(-c2cnc(-n3nc(C4CC4)c4ccc(C(=O)N5CCOCC5)cc43)nc2)c1 [Compound No. 51, (3-Cyclopropyl-1-(5-(5-ethoxy-2-fluorophenyl)pyrimidin-2-yl)-1H-indazol-6-yl)(morpholino)methanone]	103%	155 to 158 °C	
CN(CC(N)=O)C(=O)c1ccc2c(C3CC3)nn(-c3ncc(-c4cc([S+](C)[O-])ccc4F)cn3)c2c1 (stereo not shown) [Compound No. 57]	120%	274 to 277 °C	
CC(C)(O)c1ccc(F)c(-c2cnc(-n3nc(C4CC4)c4ccc(C(=O)N5CCOCC5)cc43)nc2)c1 [Compound No. 54, (3-Cyclopropyl-1-(5-(2-fluoro-5-(2-hydroxypropan-2-yl)phenyl)pyrimidin-2-yl)-1H-indazol-6-yl)(morpholino)methanone]	107%	211 to 215 °C	
CN(CC(N)=O)C(=O)c1ccc2c(C3CC3)nn(-c3ncc(-c4cc(C(C)(C)O)ccc4F)cn3)c2c1 [Compound No. 55, N-(2-Amino-2-oxoethyl)-3-cyclopropyl-1-(5-(2-fluoro-5-(2-hydroxypropan-2-yl)phenyl)pyrimidin-2-yl)-N-methyl-1H-indazole-6-carboxamide]	115%	177 to 180 °C	
O=C(c1ccc2c(C3CC3)nn(-c3ncc(-c4ccccn4)cn3)c2c1)N1CCOCC1 [Compound No. 30, (3-Cyclopropyl-1-(5-(pyridin-2-yl)pyrimidin-2-yl)-1H-indazol-6-yl)(morpholino)methanone]		260 to 263 °C	96%
CN1CCN(C(=O)c2ccc3c(C4CC4)nn(-c4ncc(-c5ccccc5F)cn4)c3c2)CC1=O [Compound No. 17, 4-(3-Cyclopropyl-1-(5-(2-fluorophenyl)pyrimidin-2-yl)-1H-indazole-6-carbonyl)-1-methylpiperazin-2-one]		217 to 221 °C	95%

The remaining lines, values ahead:

inhibition at 10 µM (human PDE4B1 [1])	melting point	inhibition at 1 µM (human PDE4B1 [2])	SMILES
96%	311 to 315 °C		CN(CC(N)=O)C(=O)c1ccc2c(C3CC3)nn(-c3ncc(-c4cc(S(C)(=O)=O)ccc4F)cn3)c2c1 [Compound No. 59, N-(2-Amino-2-oxoethyl)-3-cyclopropyl-1-(5-(2-fluoro-5-(methylsulfonyl)phenyl)pyrimidin-2-yl)-N-methyl-1H-indazole-6-carboxamide]
108%	187 to 190 °C		Cc1nn(-c2ncc(-c3cc(C(C)(C)O)ccc3F)cn2)c2cc(C(=O)N(C)CC(N)=O)ccc12 [Compound No. 62, N-(2-Amino-2-oxoethyl)-1-(5-(2-fluoro-5-(2-hydroxypropan-2-yl)phenyl)pyrimidin-2-yl)-N,3-dimethyl-1H-indazole-6-carboxamide]
75%	255 to 259 °C		Cc1nn(-c2ncc(-c3cc(S(C)(=O)=O)ccc3F)cn2)c2cc(C(=O)N(C)CC(N)=O)ccc12 [Compound No. 63, N-(2-Amino-2-oxoethyl)-1-(5-(2-fluoro-5-(methylsulfonyl)phenyl)pyrimidin-2-yl)-N,3-dimethyl-1H-indazole-6-carboxamide]
105%	276 to 280 °C		CS(=O)(=O)c1ccc(F)c(-c2cnc(-n3nc(C4CC4)c4ccc(C(=O)N5CCOCC5)cc43)nc2)c1 [Compound No. 58, (3-Cyclopropyl-1-(5-(2-fluoro-5-(methylsulfonyl)phenyl)pyrimidin-2-yl)-1H-indazol-6-yl)(morpholino)methanone]
100%	254 to 257 °C		CCOc1ccc(F)c(-c2cnc(-n3nc(C)c4ccc(C(=O)N(C)CC(N)=O)cc43)nc2)c1 [Compound No. 60, N-(2-Amino-2-oxoethyl)-1-(5-(5-ethoxy-2-fluorophenyl)pyrimidin-2-yl)-N,3-dimethyl-1H-indazole-6-carboxamide]
103%	191 to 195 °C		Cc1nn(-c2ncc(-c3cc(C(C)O)ccc3F)cn2)c2cc(C(=O)N(C)CC(N)=O)ccc12 (stereo not shown) [Compound No. 61, N-(2-Amino-2-oxoethyl)-1-(5-(2-fluoro-5-(1-hydroxyethyl)phenyl)pyrimidin-2-yl)-N,3-dimethyl-1H-indazole-6-carboxamide]
42%	164 to 168 °C		Cc1nn(-c2ncc(-c3cc([S+](C)[O-])ccc3F)cn2)c2cc(C(=O)N(C)CC(N)=O)ccc12 (stereo not shown) [Compound No. 64, N-(2-Amino-2-oxoethyl)-1-(5-(2-fluoro-5-(methylsulfinyl)phenyl)pyrimidin-2-yl)-N,3-dimethyl-1H-indazole-6-carboxamide]
